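Assay format: 96-well plates, 48-hour exposure. The concentration for 50% growth inhibition is given as GI50.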 Active and inactive are the calls of the source. No stated cut-off is given here; in the data, active = GI50 up to about 1.1 µM and inactive = higher.
Experiments:
Test in all cases: NCI-60 cell line screen, 48 h
HCT-15 = test system: HCT-15
M14 = test system: M14
A498 = test system: A498
A549 = test system: A549
OVCAR-4 = test system: OVCAR-4
SK-MEL-5 = test system: SK-MEL-5
Hs-578T = test system: Hs-578T
NCI/ADR-RES = test system: NCI/ADR-RES
SNB-75 = test system: SNB-75
UO-31 = test system: UO-31
786-0 = test system: 786-0
HOP-92 = test system: HOP-92
SF-268 = test system: SF-268
SF-539 = test system: SF-539
EKVX = test system: EKVX
Malme-3M = test system: Malme-3M
SR = test system: SR
HL-60 = test system: HL-60
SF-295 = test system: SF-295
U-251 = test system: U-251

SMILES | GI50 (HCT-15) [µM] | GI50 (M14) | GI50 (A498) | GI50 (A549) | GI50 (OVCAR-4) | GI50 (SK-MEL-5) | GI50 (Hs-578T) | GI50 (NCI/ADR-RES) | GI50 (SNB-75) | GI50 (UO-31) | GI50 (786-0) | GI50 (HOP-92) | GI50 (SF-268) | GI50 (SF-539) | GI50 (EKVX) | GI50 (Malme-3M) | GI50 (SR) | GI50 (HL-60) | GI50 (SF-295) | GI50 (U-251)
CCC(=O)Nc1ccc(/N=C/c2cccc(Oc3ccccc3)c2)cc1 | > 100 | 46.6 µM (inactive) | > 100 µM (inactive) | > 100 µM (inactive) | 55.3 µM (inactive) | 33 µM (inactive) | > 100 µM (inactive) | 42.3 µM (inactive) | > 100 µM (inactive) | 70.5 µM (inactive) | 42.4 µM (inactive) | 85.3 µM (inactive) | 42.1 µM (inactive) | 16.4 µM (inactive) | 65.5 µM (inactive) | > 100 µM (inactive) | 16.2 µM (inactive) | 26.7 µM (inactive) | > 100 µM (inactive) | 
CC(C)=CCC[C@@H](C)C1=C(O)C(=O)C(C)=C(Nc2ccccc2Br)C1=O | 6.65 | 15.2 µM (inactive) | 7.19 µM (inactive) | 17.8 µM (inactive) | 6.52 µM (inactive) | 11.5 µM (inactive) | 13.8 µM (inactive) | 3.78 µM (inactive) | 15.4 µM (inactive) | 11.3 µM (inactive) | 13.3 µM (inactive) | 11.6 µM (inactive) | 7.89 µM (inactive) | 8.59 µM (inactive) | 17.3 µM (inactive) | 9.4 µM (inactive) | 9.66 µM (inactive) | 2.73 µM (inactive) | 3.85 µM (inactive) | 8.91 µM (inactive)
O=C(O)C1C2C=CC(O2)C1C(=O)Nc1ncccn1 (stereo unspecified) | > 100 | > 100 µM (inactive) | > 100 µM (inactive) | > 100 µM (inactive) | > 100 µM (inactive) | > 100 µM (inactive) | > 100 µM (inactive) | > 100 µM (inactive) | > 100 µM (inactive) | > 100 µM (inactive) | > 100 µM (inactive) | > 100 µM (inactive) | > 100 µM (inactive) | > 100 µM (inactive) | > 100 µM (inactive) | > 100 µM (inactive) | > 100 µM (inactive) | > 100 µM (inactive) | > 100 µM (inactive) | > 100 µM (inactive)
COc1ccc(C2SCC(=O)N2NC(=O)C(C)Oc2ccccc2C)cc1 (stereo unspecified) | 54.7 | > 100 µM (inactive) | 46 µM (inactive) | 61.4 µM (inactive) | > 100 µM (inactive) | 53 µM (inactive) | > 100 µM (inactive) | 65.2 µM (inactive) | > 100 µM (inactive) | 72.1 µM (inactive) | > 100 µM (inactive) | 29.2 µM (inactive) | > 100 µM (inactive) | > 100 µM (inactive) | > 100 µM (inactive) | > 100 µM (inactive) | 28.2 µM (inactive) | 28.7 µM (inactive) | 60.8 µM (inactive) | 85.7 µM (inactive)
C=C1C[C@@H](O)[C@@H](Br)C(C)(C)[C@]12CCC(C)(Br)C(Cl)C2 (stereo partly specified) | > 50 | > 50 µM (inactive) | > 50 µM (inactive) | > 50 µM (inactive) | > 50 µM (inactive) | > 50 µM (inactive) | > 50 µM (inactive) | > 50 µM (inactive) | > 50 µM (inactive) | > 50 µM (inactive) | > 50 µM (inactive) | > 50 µM (inactive) | > 50 µM (inactive) | > 50 µM (inactive) | 25.4 µM (inactive) | > 50 µM (inactive) | > 50 µM (inactive) | 1.03 µM (active) | > 50 µM (inactive) | > 50 µM (inactive)
N#Cc1nc(-c2cccs2)oc1N | > 100 | > 100 µM (inactive) | > 100 µM (inactive) | > 100 µM (inactive) | > 100 µM (inactive) | > 100 µM (inactive) | > 100 µM (inactive) | > 100 µM (inactive) | 92.3 µM (inactive) | 62.4 µM (inactive) | > 100 µM (inactive) | 90.2 µM (inactive) | > 100 µM (inactive) | > 100 µM (inactive) | 75 µM (inactive) | > 100 µM (inactive) | > 100 µM (inactive) | 56.8 µM (inactive) | > 100 µM (inactive) | > 100 µM (inactive)
COc1cc(=O)n2c3ccccc3n(C)c2c1C#N | > 100 | > 100 µM (inactive) | > 100 µM (inactive) | > 100 µM (inactive) | > 100 µM (inactive) | > 100 µM (inactive) | > 100 µM (inactive) | > 100 µM (inactive) | > 100 µM (inactive) | > 100 µM (inactive) | > 100 µM (inactive) | > 100 µM (inactive) | > 100 µM (inactive) | > 100 µM (inactive) | > 100 µM (inactive) | > 100 µM (inactive) | > 100 µM (inactive) | > 100 µM (inactive) | 22.6 µM (inactive) | > 100 µM (inactive)
Cc1ccc(S(=O)(=O)OC2=C/C(=N\c3onc(C)c3C)c3ccccc3C2=O)cc1 | 29 | 18.8 µM (inactive) | > 100 µM (inactive) | 51.1 µM (inactive) | 16.4 µM (inactive) | 18.3 µM (inactive) | 38.5 µM (inactive) | 25.2 µM (inactive) | 45.7 µM (inactive) | 17 µM (inactive) | 37.1 µM (inactive) | 18.8 µM (inactive) | 23.7 µM (inactive) | 31.8 µM (inactive) | > 100 µM (inactive) | 17.9 µM (inactive) | 3.01 µM (inactive) | 6.43 µM (inactive) | 32.4 µM (inactive) | 4 µM (inactive)
Clc1nc(NC23CC4CC(CC(C4)C2)C3)nc(NC23CC4CC(CC(C4)C2)C3)n1 | 34.7 | 73.1 µM (inactive) | > 100 µM (inactive) | 43.9 µM (inactive) | 83 µM (inactive) | 47.3 µM (inactive) | 25 µM (inactive) | 46 µM (inactive) | 18 µM (inactive) | 23.4 µM (inactive) | 52.5 µM (inactive) | 17.3 µM (inactive) | > 83.4 µM (inactive) | > 75.9 µM (inactive) | > 89.9 µM (inactive) | > 100 µM (inactive) | 29 µM (inactive) | 19.9 µM (inactive) | 16.4 µM (inactive) | 26.7 µM (inactive)
CCCCn1c(C)c(C(=O)OCC)c2cc(OCc3ccc(C(=O)Nn4c(C)ccc4C)cc3)c(Br)cc21 | > 100 | > 100 µM (inactive) | > 100 µM (inactive) | > 100 µM (inactive) | > 100 µM (inactive) | > 100 µM (inactive) | > 100 µM (inactive) | > 100 µM (inactive) | > 100 µM (inactive) |  | > 100 µM (inactive) | > 100 µM (inactive) | > 100 µM (inactive) | > 100 µM (inactive) | > 100 µM (inactive) | > 100 µM (inactive) | > 100 µM (inactive) | > 100 µM (inactive) | > 100 µM (inactive) | > 100 µM (inactive)
CCOC(=O)c1cc2c(OC)cc(OC)cc2oc1=O | > 100 | > 100 µM (inactive) | > 100 µM (inactive) | > 100 µM (inactive) | > 100 µM (inactive) | > 100 µM (inactive) | 45.2 µM (inactive) | > 100 µM (inactive) | 38.5 µM (inactive) |  | 52.5 µM (inactive) | 46.8 µM (inactive) | 42.3 µM (inactive) | > 100 µM (inactive) | > 100 µM (inactive) | > 100 µM (inactive) | > 100 µM (inactive) | > 100 µM (inactive) | 50 µM (inactive) | 37.7 µM (inactive)
NCCN1C(=O)c2cc(Cl)c(Cl)cc2C1(O)c1ccc(Cl)cc1 (stereo unspecified) | 2.4 | 1.77 µM (inactive) | 2.92 µM (inactive) | 2.09 µM (inactive) | 1.76 µM (inactive) | 1.6 µM (inactive) | 2.74 µM (inactive) | 2.42 µM (inactive) | 2.28 µM (inactive) | 4.86 µM (inactive) | 1.61 µM (inactive) | 2.91 µM (inactive) | 2.32 µM (inactive) | 1.7 µM (inactive) | 2.23 µM (inactive) | 1.71 µM (inactive) | 2.02 µM (inactive) | 1.67 µM (inactive) | 2.01 µM (inactive) | 1.74 µM (inactive)
Nc1ccc(C(=O)O)cc1.Nc1nc(N)c2nc[nH]c2n1 | 28.8 | 10.7 µM (inactive) | 13.6 µM (inactive) | 13.3 µM (inactive) | 26.4 µM (inactive) | 21.5 µM (inactive) | > 100 µM (inactive) | 38.5 µM (inactive) | 2.44 µM (inactive) | 11.3 µM (inactive) | 26.7 µM (inactive) | 79.3 µM (inactive) | 60.8 µM (inactive) | > 100 µM (inactive) | 14.5 µM (inactive) | 69.2 µM (inactive) | 33.2 µM (inactive) | 31.4 µM (inactive) | 25 µM (inactive) | 43.9 µM (inactive)
COc1cc2ccc1OCc1cccc(n1)COc1ccc(cc1OC)/C=N\CCNCCNCC/N=C\2 | > 100 | > 100 µM (inactive) | > 100 µM (inactive) | > 100 µM (inactive) | > 100 µM (inactive) | > 100 µM (inactive) | > 100 µM (inactive) | > 100 µM (inactive) | > 100 µM (inactive) | > 100 µM (inactive) | > 100 µM (inactive) | > 100 µM (inactive) | > 100 µM (inactive) | > 100 µM (inactive) | > 100 µM (inactive) | > 100 µM (inactive) | > 100 µM (inactive) | 53.5 µM (inactive) |  | > 100 µM (inactive)

— ChEMBL document CHEMBL1201862, “PubChem BioAssay data set” (2004)
